{
  "source": "patent US9539219B2",
  "about": "“Pharmaceutical compositions of carotenoid chylomicrons” (HEALTH-EVER BIOTECH CO. LTD, priority 2013, dated 2017)",
  "key": {"[1]": {"experiment": "Stability at pH 2.0, 3.5, 6.0, 6.8 and 7.4", "assay_type": "physicochemical", "conditions": "pH 2.0, 3.5, 6.0, 6.8 and 7.4 for 1, 2, 4, 6, 12 or 24 h; for Change in concentration in micelles at different pH: micelle", "description": "(§1) Likewise, when chylomicron was stored at pH 2.0, 3.5, 6.0, 6.8 and 7.4 for 1, 2, 4, 6, 12 or 24 h, the stability of solanorubin, octohydrogenosolanorubin and hexahydrogenosolanorubin was maintained. The encapsulation efficiency of solanorubin in chylomicron was assessed to be approximately 80%.\n(§2) The average size of the micelle, based on DLS and TEM analyses, was approximately 7.5 nm, with spherical shape and transparent appearance. […] Also, the mean values of solanorubin, octohydrogenosolanorubin and hexahydrogenosolanorubin were ranged from 0.34-0.38 mg/mL, 0.03-0.04 mg/mL and 0.03-0.04 mg/mL, respectively, during storage or heating under the same condition. […] The encapsulation efficiency of solanorubin in micelle was determined to be about 78%."}, "[2]": {"experiment": "Pharmacokinetic study of the chylomicron and micelle compositions in rats (gavage and i.v.)", "assay_type": "in vivo, male Sprague-Dawley rats", "conditions": "rat", "description": "The pharmacokinetic properties of the pharmaceutical composition prepared in Example 1 and the pharmaceutical composition prepared in Example 2 were assessed in male Sprague-Dawley rats.\nA total of 24 rats (all rats with body weight of about 280 g each) were divided into two groups with 12 each, one received oral administration (gavage) while the other received intravenous (i.v.) injection.\nThe pharmaceutical composition in Example 1 and the pharmaceutical composition in Example 2 were administered via gavage and intravenous (IV) injection. An equivalent of 1.43 mg/kg of solanorubin was given by IV route (one-tenth of oral dosage) and an equivalent of 14.3 mg/kg of solanorubin was administered orally.\nBlood samples were collected via the tail vein of the rats at the following time intervals: 2 minutes, 5 minutes, 10 minutes, 30 minutes, 1 hour, 2 hours, 4 hours, 8 hours, 24 hours, 48 hours and 72 hours after the composition was administered.\nPharmacokinetic study was carried out using the WinNonlin software system (Pharsight Co, Mountain View, Calif., USA) by non-compartmental model. The area under the drug concentration-time curve (AUC) was used to determine total amount of all-trans-solanorubin, cis-solanorubin, octohydrogenosolanorubin and hexahydrogenosolanorubin to reach the systematic circulation. Some other kinetic parameters such as Cmax, Tmax, and t1/2 were measured as well. The absolute bioavailability of trans-solanorubin, cis-solanorubin, octohydrogenosolanorubin and hexahydrogenosolanorubin was calculated using the following formula: […]\nAll the data were subjected to analysis of variance and Duncan's multiple range test using Statistical Analysis Software (SAS)^16 for statistical significance at P<0.05."}, "[3]": {"experiment": "Stability during storage at 4° C. or 25° C. for 3 months or heating at 100° C. for 4 h", "assay_type": "physicochemical", "conditions": "4° C. or 25° C. for 3 months or 100° C. for 4 h", "description": "as §1, §2"}, "[4]": {"conditions": "rat, Faisal et al. J. Pharm. Pharmacol. 2010, cited from earlier work"}, "Encapsulation efficiency": {"experiment": "Encapsulation efficiency", "assay_type": "physicochemical", "description": "as §1, §2"}, "[5]": {"conditions": "cited from earlier work"}, "[6]": {"experiment": "Pre-experiments on saturation of absorption (dose selection)", "assay_type": "in vivo", "conditions": "several pre-experiments"}, "[7]": {"conditions": "male, Sprague-Dawley, in vivo, po, 14.3 mg/kg"}},
  "note": "Like-named read-outs stand apart in the source and are kept apart here.",
  "data": [
    {"smiles": "CC(C)=CCCC(C)=CCCC(C)=CC=CC(C)=CC=CC=C(C)CCC=C(C)CCC=C(C)CCC=C(C)C", "note": "[Hexahydrogenosolanorubin, hexahydrogenosolanorubin]", "values": [
      {"measurement": "Change in concentration in micelles at different pH", "setting": "[1]", "value": "only a minor change"},
      {"measurement": "AUC higher for IV administered micelle composition compared to IV administered chylomicron composition (difference)", "setting": "[2]; in vivo, iv, 1.43 mg/kg", "value": 544, "unit": "µg·min/mL"},
      {"measurement": "Cmax of IV administered micelle composition, fold higher than IV administered chylomicron composition", "setting": "[2]; in vivo, iv, 1.43 mg/kg", "value": 9.6, "unit": "fold"},
      {"measurement": "Tmax", "setting": "[2]; in vivo, iv, 1.43 mg/kg", "value": 0.033, "unit": "h"}
    ]},
    {"smiles": "CC(C)=CCC/C(C)=C/CC/C(C)=C/CC/C(C)=C/C=C/C=C(\\C)CC/C=C(\\C)CC/C=C(\\C)CCC=C(C)C", "note": "[Octohydrogenosolanorubin, octohydrogenosolanorubin]", "values": [
      {"measurement": "Change in concentration in micelles at different pH", "setting": "[1]", "value": "only a minor change"},
      {"measurement": "AUC higher for IV administered micelle composition compared to IV administered chylomicron composition (difference)", "setting": "[2]; in vivo, iv, 1.43 mg/kg", "value": 311, "unit": "µg·min/mL"},
      {"measurement": "Cmax of IV administered micelle composition, fold higher than IV administered chylomicron composition", "setting": "[2]; in vivo, iv, 1.43 mg/kg", "value": 5.9, "unit": "fold"},
      {"measurement": "Cmax", "setting": "[2]; in vivo, po, 14.3 mg/kg", "value": 60, "unit": "ng/mL"}
    ]},
    {"smiles": "CC(C)=CCC/C(C)=C/C=C/C(C)=C/C=C/C(C)=C/C=C/C=C(C)/C=C/C=C(C)/C=C/C=C(\\C)CCC=C(C)C", "note": "[Solanorubin, solanorubin]", "values": [
      {"measurement": "Stability of the carotenoid in chylomicron (change in concentration)", "setting": "[3]; chylomicron", "value": "high stability"},
      {"measurement": "Mean concentration during storage or heating", "setting": "[3]; micelle", "value": "340000 to 380000", "unit": "ng/mL"},
      {"measurement": "Bioavailability of solanorubin not encapsulated / from natural sources", "setting": "[4]", "value": "about 1.85%"},
      {"measurement": "Bioavailability of solanorubin not encapsulated / from natural sources", "setting": "[4]; listed as non-encapsulated solanorubin", "value": 1.85, "unit": "%"},
      {"measurement": "Encapsulation efficiency", "setting": "Encapsulation efficiency; solanorubin in chylomicron", "value": "approximately 80%"},
      {"measurement": "Encapsulation efficiency", "setting": "Encapsulation efficiency; solanorubin in micelle", "value": "about 78%"},
      {"measurement": "Stability of the carotenoid in chylomicron at different pH", "setting": "[1]; chylomicron", "value": "maintained"},
      {"measurement": "Change in concentration in micelles at different pH", "setting": "[1]", "value": "only a minor change"},
      {"measurement": "Solubility in water", "setting": "[5]", "value": "insoluble in water"},
      {"measurement": "Solubility in water", "setting": "[5]; listed as solanorubin", "value": "practically insoluble in water"},
      {"measurement": "Cmax of IV administered micelle composition, fold higher than IV administered chylomicron composition", "setting": "[2]; IV 1.43 mg/kg BW", "value": 7.8, "unit": "fold"},
      {"measurement": "AUC", "setting": "[2]; male, Sprague-Dawley, in vivo, IV 1.43 mg/kg BW, read-out: AUC higher for IV administered micelle composition compared to IV administered chylomicron composition (difference) (converted)", "value": 3380, "unit": "ng·h/mL"},
      {"measurement": "bioavailability", "setting": "[2]; male, Sprague-Dawley, in vivo, 14.3 mg/kg", "value": 9.5, "unit": "%"},
      {"measurement": "bioavailability", "setting": "[2]; male, Sprague-Dawley, in vivo, 14.3 mg/kg, Bioavailability", "value": 6.8, "unit": "%"},
      {"measurement": "AUC", "setting": "[2]; male, Sprague-Dawley, in vivo, iv, 1.43 mg/kg", "value": "12200 ± 1400", "unit": "ng·h/mL"},
      {"measurement": "AUC", "setting": "[2]; male, Sprague-Dawley, in vivo, iv, 1.43 mg/kg, AUC", "value": 8830, "unit": "ng·h/mL"},
      {"measurement": "Tmax", "setting": "[2]; male, Sprague-Dawley, in vivo, iv, 1.43 mg/kg, Tmax", "value": 0.0333, "unit": "h"},
      {"measurement": "AUC", "setting": "[2]; [7]", "value": 8380, "unit": "ng·h/mL"},
      {"measurement": "Cmax", "setting": "[2]; [7]", "value": 180, "unit": "ng/mL"},
      {"measurement": "Tmax", "setting": "[2]; [7]", "value": 4, "unit": "h"},
      {"measurement": "t1/2", "setting": "[2]; [7]", "value": "33.63 ± 5.43", "unit": "h"},
      {"measurement": "AUC", "setting": "[2]; male, Sprague-Dawley, in vivo, po, 14.3 mg/kg, AUC", "value": 8270, "unit": "ng·h/mL"},
      {"measurement": "Cmax", "setting": "[2]; male, Sprague-Dawley, in vivo, po, 14.3 mg/kg, Cmax", "value": 270, "unit": "ng/mL"},
      {"measurement": "Tmax", "setting": "[2]; male, Sprague-Dawley, in vivo, po, 14.3 mg/kg, Tmax", "value": 2, "unit": "h"},
      {"measurement": "half-life", "setting": "[2]; male, Sprague-Dawley, in vivo, po, 14.3 mg/kg, t1/2", "value": "28.9 ± 3.3", "unit": "h"}
    ]},
    {"smiles": "CC(C)=CCC/C(C)=C/C=C/C(C)=C/C=C/C(C)=C/C=C/C=C(C)/C=C/C=C(C)/C=C/C=C(\\C)CCC=C(C)C", "note": "[lycopene]", "values": [
      {"measurement": "Dose above which saturation of absorption may occur", "setting": "[6]", "value": "higher than 14.3 mg/kg BW"}
    ]}
  ]
}
